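Interpolation was linear, between the two tested concentrations surrounding the appropriate level; five concentrations were tested over 48 hours in 96-well plates. Abbreviation: GI50, concentration required for 50% inhibition of growth.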 Active and inactive are the calls of the source. Cut-off read from the data, not from the text of the source: active = GI50 up to about 1.1 µM and inactive = higher.
Key:
Test in all cases: growth of human tumour cells (NCI), 48 h
A549 = test system: A549
BT-549 = test system: BT-549
EKVX = test system: EKVX
HT-29 = test system: HT-29
KM12 = test system: KM12
MCF7 = test system: MCF7
MDA-MB-435 = test system: MDA-MB-435
MDA-N = test system: MDA-N
MOLT-4 = test system: MOLT-4
NCI-H23 = test system: NCI-H23
NCI-H522 = test system: NCI-H522
OVCAR-3 = test system: OVCAR-3
OVCAR-5 = test system: OVCAR-5
RXF 393 = test system: RXF 393
SK-OV-3 = test system: SK-OV-3
SNB-19 = test system: SNB-19
SR = test system: SR
T47D = test system: T47D
TK-10 = test system: TK-10
U-251 = test system: U-251

Measured: GI50

Cc1ccc2nc(C(C)C)c(=O)[nH]c2c1
inactive: A549 57 µM | BT-549 > 100 µM | EKVX > 100 µM | HT-29 > 100 µM | KM12 31.8 µM | MCF7 > 100 µM | MDA-MB-435 > 100 µM | MDA-N > 100 µM | MOLT-4 > 100 µM | NCI-H23 > 100 µM | NCI-H522 82.8 µM | OVCAR-3 18.8 µM | OVCAR-5 > 100 µM | RXF 393 93.1 µM | SK-OV-3 > 100 µM | SNB-19 > 100 µM | SR > 100 µM | T47D > 100 µM | TK-10 > 100 µM | U-251 47 µM

O=[N+]([O-])c1cc(Br)cc2cc(Cl)cnc12
inactive: A549 > 100 µM | BT-549 72.4 µM | EKVX > 100 µM | HT-29 > 100 µM | KM12 > 100 µM | MCF7 35.5 µM | MDA-MB-435 > 100 µM | MDA-N > 100 µM | MOLT-4 > 100 µM | NCI-H23 > 100 µM | NCI-H522 > 100 µM | OVCAR-3 > 100 µM | OVCAR-5 > 100 µM | RXF 393 71.8 µM | SK-OV-3 86.9 µM | SNB-19 > 100 µM | SR > 100 µM | T47D 39.8 µM | TK-10 > 100 µM | U-251 > 100 µM

CCOC(=O)c1c2c(n(C)c1-c1ccccc1)C(=O)C(C)=CC2=O
inactive: A549 12.2 µM | BT-549 13.2 µM | EKVX 5.87 µM | HT-29 5.79 µM | KM12 6.04 µM | MCF7 2.37 µM | MDA-MB-435 1.91 µM | MDA-N 2 µM | MOLT-4 2.55 µM | NCI-H23 11.6 µM | NCI-H522 1.69 µM | OVCAR-3 2.86 µM | OVCAR-5 6.05 µM | RXF 393 8.97 µM | SK-OV-3 16.7 µM | SNB-19 13.5 µM | SR 1.91 µM | T47D 3.13 µM | TK-10 8.43 µM | U-251 7.8 µM

CCOC(=O)C1C(O)CC2c3ccccc3-c3ccccc3C21 (stereo not given)
inactive: A549 44.9 µM | BT-549 > 100 µM | EKVX > 100 µM | HT-29 68.1 µM | KM12 36.1 µM | MCF7 49.5 µM | MDA-MB-435 41.8 µM | MDA-N 69 µM | MOLT-4 > 100 µM | NCI-H23 42.5 µM | NCI-H522 35.4 µM | OVCAR-3 > 100 µM | OVCAR-5 > 100 µM | RXF 393 29.3 µM | SK-OV-3 21.2 µM | SNB-19 33.5 µM | SR > 100 µM | T47D > 100 µM | TK-10 55.2 µM | U-251 23.8 µM

CC(=O)O[C@H]1CC[C@@]2(C)C(=CC[C@H]3[C@@H]4CC[C@H](c5cc(C(F)(F)F)n(C(C)=O)n5)[C@@]4(C)CC[C@@H]32)C1
inactive: A549 6.11 µM | BT-549 10.7 µM | EKVX 7.28 µM | HT-29 4.62 µM | KM12 8.41 µM | MCF7 5.87 µM | MDA-MB-435 9.27 µM | MDA-N 11.3 µM | MOLT-4 2.47 µM | NCI-H23 6.05 µM | NCI-H522 17.1 µM | OVCAR-3 5.77 µM | OVCAR-5 9.4 µM | RXF 393 5.68 µM | SK-OV-3 12.5 µM | SNB-19 11 µM | SR 3.98 µM | T47D 6.41 µM | TK-10 5.22 µM | U-251 4.79 µM

COC(=O)C(CCC1C=CCC1)/N=C\c1ccccc1 (stereo not given)
inactive: A549 49.9 µM | BT-549 78.5 µM | EKVX 44.8 µM | HT-29 50 µM | KM12 45 µM | MCF7 46.8 µM | MDA-MB-435 60.3 µM | MDA-N 49.9 µM | MOLT-4 33.8 µM | NCI-H23 52.6 µM | NCI-H522 54.2 µM | OVCAR-3 66.5 µM | OVCAR-5 > 100 µM | RXF 393 58.5 µM | SK-OV-3 > 100 µM | SNB-19 79.1 µM | SR 38.3 µM | T47D 47.4 µM | TK-10 99.1 µM | U-251 52.1 µM

FC(F)(F)c1ccc2nc3n(c2c1)C(c1c(Cl)cccc1Cl)SC3 (stereo not given)
inactive: A549 15 µM | BT-549 20.7 µM | EKVX 13.8 µM | HT-29 15.4 µM | KM12 14.6 µM | MCF7 16.1 µM | MDA-MB-435 15 µM | MDA-N 11.7 µM | MOLT-4 9.48 µM | NCI-H23 15.1 µM | NCI-H522 11.9 µM | OVCAR-3 15.6 µM | OVCAR-5 15.9 µM | RXF 393 15.2 µM | SK-OV-3 14 µM | SNB-19 18.6 µM | SR 4.24 µM | T47D 11.2 µM | TK-10 18.3 µM | U-251 17.4 µM

CC(C)CCCC(C)[C@H]1CCC2[C@@H]3CCC4Cc5nc6c(nc5C[C@]4(C)C3CC[C@@]21C)CC1CC[C@@H]2C(C[C@@H](O)[C@@]3(C)C2C[C@@H]2OC4(CCC(C)CO4)C(C)[C@@H]23)[C@@]1(C)C6 (stereo not given in full)
inactive: A549 > 100 µM | BT-549 > 100 µM | EKVX > 100 µM | HT-29 > 100 µM | KM12 > 100 µM | MCF7 > 100 µM | MDA-MB-435 > 100 µM | MDA-N > 100 µM | MOLT-4 > 100 µM | NCI-H23 > 100 µM | NCI-H522 > 100 µM | OVCAR-3 > 100 µM | OVCAR-5 > 100 µM | RXF 393 > 100 µM | SK-OV-3 94.4 µM | SNB-19 > 100 µM | SR > 100 µM | T47D > 100 µM | TK-10 > 100 µM | U-251 > 100 µM

COc1ccc(N)c(C(=O)CCNC(C)=O)c1 [KINURENAMINE]
inactive: A549 > 100 µM | BT-549 > 100 µM | EKVX > 100 µM | HT-29 > 100 µM | KM12 > 100 µM | MCF7 > 100 µM | MDA-MB-435 > 100 µM | MDA-N > 100 µM | MOLT-4 > 100 µM | NCI-H23 > 100 µM | NCI-H522 > 100 µM | OVCAR-3 > 100 µM | OVCAR-5 > 100 µM | RXF 393 > 100 µM | SK-OV-3 > 100 µM | SNB-19 > 100 µM | SR > 100 µM | T47D > 100 µM | TK-10 > 100 µM | U-251 > 100 µM

— ChEMBL document CHEMBL1201862, “PubChem BioAssay data set” (2004)
